Source: patent publication US20240018466A1, “METHOD FOR INDUCING SALMONELLA ENTERITIDIS INTO VBNC STATE BY SODIUM HYPOCHLORITE” (Zhejiang Academy of Agricultural Sciences, priority 2022, published 2024)

What was measured:
[1] = test system: S. Enteritidis CVCC 1806; assay: Counts of culturable cells by plate counting method after NaClO stress treatment; assay type: cell-based, Salmonella enteritidis; settings: after 2.5 h of treatment with 50 mg/L NaClO solution, room temperature; FIG. 1
[2] = test system: S. Enteritidis CVCC 1806; assay: Counts of live cells by Live and Dead BacLight SYTO9/PI staining and flow cytometry after NaClO stress treatment; assay type: cell-based, Salmonella enteritidis
Method: the NaClO stock solution of NaClO disinfectant solution containing 56.8 mg/mL chlorine was diluted to 100 mg/L with sterilized sterile water for later use, and 0.5 ml of bacterial suspension (10^9 CFU/mL) and 100 mg/L NaClO solution were taken respectively into a sterile EP tube. The products in the sterile EP tube were vortex-mixed, and the stress concentration in the final system was 50 mg/L.
The mixed reagent was placed at room temperature, and systems were obtained for processing every 0.5 h within a stress treatment for up to 3 h, and 100 μL 1.5% Na2S2O3 was added to terminate the reaction.
Counts of live cells: the concentration of bacterial suspension was adjusted to 10^7-10^9 CFU/mL, and live, dead and injured bacteria were distinguished using commercial Live and Dead BacLight test kits (Molecular Probes, Carlsbad, CA, USA). […]

Which results are given for `OCl` [NaClO, sodium hypochlorite]?
number of culturable cells [1]: 0 CFU/ml; total content of live cells and bacteria in the sub-lethal injury state in the system ([2]; after 2.5 h of treatment with 50 mg/L NaClO solution, flow cytometry): 60.03%; induction of VBNC state ([2]; after 2.5 h of treatment with 50 mg/L NaClO, live minus culturable cells at maximum): enter the VBNC state
